From the NIST ThermoML archive (doi:10.1021/je900387e)

Assay: xn = mol fraction of the nth substance listed
Settings: Liquid, Pycnometric method

CCCCCl [1-chlorobutane] + O=C=O
Settings | mass density [kg/m3]
322.7 K, 8980 kPa, x1 = 0.0243 | 377
322.7 K, 8990 kPa, x1 = 0.0744 | 690
322.7 K, 9050 kPa, x1 = 0.0243 | 387
322.7 K, 9110 kPa, x1 = 0.0243 | 397
322.7 K, 9120 kPa, x1 = 0.0981 | 754
322.7 K, 9140 kPa, x1 = 0.0744 | 698
322.7 K, 9170 kPa, x1 = 0.0243 | 407
322.7 K, 9240 kPa, x1 = 0.0243 | 418
322.7 K, 9280 kPa, x1 = 0.1488 | 802
322.7 K, 9290 kPa, x1 = 0.0744 | 705
322.7 K, 9300 kPa, x1 = 0.0981 | 759
322.7 K, 9320 kPa, x1 = 0.0243 | 430
322.7 K, 9390 kPa, x1 = 0.0243 | 443
322.7 K, 9470 kPa, x1 = 0.0243 | 456
322.7 K, 9470 kPa, x1 = 0.0744 | 713
322.7 K, 9500 kPa, x1 = 0.0981 | 764
322.7 K, 9560 kPa, x1 = 0.0243 | 470
322.7 K, 9600 kPa, x1 = 0.1488 | 807
322.7 K, 9630 kPa, x1 = 0.0243 | 482
322.7 K, 9700 kPa, x1 = 0.0243 | 494
322.7 K, 9700 kPa, x1 = 0.0744 | 721
322.7 K, 9720 kPa, x1 = 0.0981 | 769
322.7 K, 9740 kPa, x1 = 0.0243 | 501
322.7 K, 9790 kPa, x1 = 0.0243 | 507
322.7 K, 9810 kPa, x1 = 0.0243 | 510
322.7 K, 9940 kPa, x1 = 0.0744 | 729
322.7 K, 9950 kPa, x1 = 0.1488 | 811
322.7 K, 10080 kPa, x1 = 0.0981 | 777
322.7 K, 10210 kPa, x1 = 0.0744 | 738
322.7 K, 10310 kPa, x1 = 0.1488 | 815
322.7 K, 10480 kPa, x1 = 0.0981 | 785
322.7 K, 10520 kPa, x1 = 0.0744 | 746
322.7 K, 10730 kPa, x1 = 0.1488 | 820
322.7 K, 10870 kPa, x1 = 0.0744 | 755
322.7 K, 10920 kPa, x1 = 0.0981 | 792
322.7 K, 11110 kPa, x1 = 0.1488 | 823
322.7 K, 11230 kPa, x1 = 0.0744 | 764
322.7 K, 11440 kPa, x1 = 0.0981 | 802
322.7 K, 11540 kPa, x1 = 0.1488 | 828
322.7 K, 11680 kPa, x1 = 0.0744 | 773
322.7 K, 12000 kPa, x1 = 0.0981 | 810
322.7 K, 12020 kPa, x1 = 0.1488 | 832
322.7 K, 12170 kPa, x1 = 0.0744 | 782
322.7 K, 12270 kPa, x1 = 0.1488 | 835
322.7 K, 12520 kPa, x1 = 0.1488 | 837
322.7 K, 12600 kPa, x1 = 0.0981 | 818
322.7 K, 12720 kPa, x1 = 0.0744 | 792
322.7 K, 12780 kPa, x1 = 0.1488 | 839
322.7 K, 13030 kPa, x1 = 0.0981 | 824
322.7 K, 13270 kPa, x1 = 0.1488 | 844
322.7 K, 13320 kPa, x1 = 0.0744 | 802
322.7 K, 13530 kPa, x1 = 0.0981 | 830
322.7 K, 13570 kPa, x1 = 0.1488 | 846
322.7 K, 13850 kPa, x1 = 0.1488 | 849
322.7 K, 14020 kPa, x1 = 0.0744 | 812
322.7 K, 14030 kPa, x1 = 0.0981 | 836
322.7 K, 14170 kPa, x1 = 0.1488 | 851
322.7 K, 14470 kPa, x1 = 0.1488 | 853
322.7 K, 14590 kPa, x1 = 0.0981 | 843
322.7 K, 14600 kPa, x1 = 0.0744 | 820
322.7 K, 14740 kPa, x1 = 0.1488 | 856
322.7 K, 14960 kPa, x1 = 0.0744 | 824
322.7 K, 15170 kPa, x1 = 0.0981 | 849
322.7 K, 15190 kPa, x1 = 0.0744 | 828
324 K, 9110 kPa, x1 = 0.0483 | 519
324 K, 9140 kPa, x1 = 0.0483 | 527
324 K, 9190 kPa, x1 = 0.0483 | 537
324 K, 9250 kPa, x1 = 0.0483 | 546
324 K, 9310 kPa, x1 = 0.0483 | 556
324 K, 9370 kPa, x1 = 0.0483 | 566
324 K, 9450 kPa, x1 = 0.0483 | 576
324 K, 9540 kPa, x1 = 0.0483 | 587
324 K, 9630 kPa, x1 = 0.0483 | 599
324 K, 9750 kPa, x1 = 0.0483 | 611
324 K, 9850 kPa, x1 = 0.0483 | 620
324 K, 10010 kPa, x1 = 0.0483 | 633
324 K, 10200 kPa, x1 = 0.0483 | 646
324 K, 10420 kPa, x1 = 0.0483 | 660
324 K, 10690 kPa, x1 = 0.0483 | 674
324 K, 11030 kPa, x1 = 0.0483 | 689
324 K, 11440 kPa, x1 = 0.0483 | 705
324 K, 11960 kPa, x1 = 0.0483 | 721
324 K, 12550 kPa, x1 = 0.0483 | 738
324 K, 13030 kPa, x1 = 0.0483 | 749
324 K, 13450 kPa, x1 = 0.0483 | 758
324 K, 13950 kPa, x1 = 0.0483 | 768
324 K, 14450 kPa, x1 = 0.0483 | 778
324 K, 15020 kPa, x1 = 0.0483 | 788
327.6 K, 8120 kPa, x1 = 0.0243 | 244
327.6 K, 8180 kPa, x1 = 0.0243 | 249
327.6 K, 8250 kPa, x1 = 0.0243 | 253
327.6 K, 8320 kPa, x1 = 0.0243 | 258
327.6 K, 8390 kPa, x1 = 0.0243 | 263
327.6 K, 8460 kPa, x1 = 0.0243 | 268
327.6 K, 8480 kPa, x1 = 0.1488 | 758
327.6 K, 8520 kPa, x1 = 0.0243 | 274
327.6 K, 8590 kPa, x1 = 0.0243 | 279
327.6 K, 8670 kPa, x1 = 0.0243 | 285
327.6 K, 8710 kPa, x1 = 0.1488 | 762
327.6 K, 8750 kPa, x1 = 0.0243 | 291
327.6 K, 8820 kPa, x1 = 0.0243 | 298
327.6 K, 8880 kPa, x1 = 0.0243 | 304
327.6 K, 8920 kPa, x1 = 0.0981 | 692
327.6 K, 8920 kPa, x1 = 0.1488 | 766
327.6 K, 8950 kPa, x1 = 0.0243 | 311
327.6 K, 9040 kPa, x1 = 0.0243 | 318
327.6 K, 9050 kPa, x1 = 0.0981 | 698
327.6 K, 9110 kPa, x1 = 0.0243 | 326
327.6 K, 9140 kPa, x1 = 0.1488 | 770
327.6 K, 9180 kPa, x1 = 0.0243 | 334
327.6 K, 9200 kPa, x1 = 0.0981 | 704
327.6 K, 9270 kPa, x1 = 0.0243 | 343
327.6 K, 9350 kPa, x1 = 0.0243 | 352
327.6 K, 9360 kPa, x1 = 0.0981 | 711
327.6 K, 9370 kPa, x1 = 0.1488 | 774
327.6 K, 9410 kPa, x1 = 0.0243 | 359
327.6 K, 9410 kPa, x1 = 0.0483 | 469
327.6 K, 9430 kPa, x1 = 0.0483 | 473
327.6 K, 9460 kPa, x1 = 0.0243 | 364
327.6 K, 9470 kPa, x1 = 0.0483 | 480
327.6 K, 9520 kPa, x1 = 0.0483 | 487
327.6 K, 9530 kPa, x1 = 0.0981 | 718
327.6 K, 9570 kPa, x1 = 0.0483 | 494
327.6 K, 9600 kPa, x1 = 0.1488 | 778
327.6 K, 9620 kPa, x1 = 0.0483 | 502
327.6 K, 9670 kPa, x1 = 0.0483 | 510
327.6 K, 9730 kPa, x1 = 0.0483 | 518
327.6 K, 9730 kPa, x1 = 0.0981 | 725
327.6 K, 9790 kPa, x1 = 0.0483 | 526
327.6 K, 9850 kPa, x1 = 0.1488 | 781
327.6 K, 9860 kPa, x1 = 0.0483 | 535
327.6 K, 9930 kPa, x1 = 0.0483 | 544
327.6 K, 9940 kPa, x1 = 0.0981 | 731
327.6 K, 10010 kPa, x1 = 0.0483 | 553
327.6 K, 10090 kPa, x1 = 0.0483 | 562
327.6 K, 10110 kPa, x1 = 0.1488 | 785
327.6 K, 10190 kPa, x1 = 0.0483 | 572
327.6 K, 10200 kPa, x1 = 0.0981 | 739
327.6 K, 10290 kPa, x1 = 0.0483 | 582
327.6 K, 10410 kPa, x1 = 0.0483 | 593
327.6 K, 10410 kPa, x1 = 0.1488 | 790
327.6 K, 10450 kPa, x1 = 0.0981 | 746
327.6 K, 10540 kPa, x1 = 0.0483 | 604
327.6 K, 10690 kPa, x1 = 0.0483 | 615
327.6 K, 10720 kPa, x1 = 0.1488 | 794
327.6 K, 10770 kPa, x1 = 0.0981 | 754
327.6 K, 10810 kPa, x1 = 0.0483 | 623
327.6 K, 10910 kPa, x1 = 0.0483 | 629
327.6 K, 11000 kPa, x1 = 0.0483 | 635
327.6 K, 11050 kPa, x1 = 0.1488 | 798
327.6 K, 11060 kPa, x1 = 0.0483 | 639
327.6 K, 11110 kPa, x1 = 0.0981 | 761
327.6 K, 11140 kPa, x1 = 0.0483 | 644
327.6 K, 11220 kPa, x1 = 0.0483 | 648
327.6 K, 11380 kPa, x1 = 0.1488 | 802
327.6 K, 11460 kPa, x1 = 0.0981 | 769
327.6 K, 11770 kPa, x1 = 0.1488 | 806
327.6 K, 11880 kPa, x1 = 0.0981 | 777
327.6 K, 12150 kPa, x1 = 0.1488 | 811
327.6 K, 12330 kPa, x1 = 0.0981 | 785
327.6 K, 12530 kPa, x1 = 0.1488 | 815
327.6 K, 12830 kPa, x1 = 0.0981 | 792
327.6 K, 12950 kPa, x1 = 0.1488 | 819
327.6 K, 13400 kPa, x1 = 0.1488 | 823
327.6 K, 13410 kPa, x1 = 0.0981 | 802
327.6 K, 13890 kPa, x1 = 0.1488 | 828
327.6 K, 14220 kPa, x1 = 0.0981 | 813
327.6 K, 14350 kPa, x1 = 0.1488 | 832
327.6 K, 14900 kPa, x1 = 0.1488 | 837
